The subject of test [1] is primary human mesenchymal stem cells (hMSCs). Description: Induction of chondrogenesis in human mesenchymal stem cells (nodule staining with Rhodamine B / Nile Red). The class given is cell-based. Particulars: for Emax: TGF-β3 (10 ng/mL) as positive control, read-out: Max. Activity as % TGF-β3 activity; for EC50: concentration required to induce 50% levels of chondrogenesis vs TGF-β3, read-out: Conc (nM) of 50% TGF-β3 activity. Here is the method:
Representative compounds were screened using primary human mesenchymal stem cells (hMSCs) to determine their ability to induce chondrogenesis (process by which cartilage is developed).
Human Mesenchymal Stem Cell Culture: Primary human mesenchymal stem cells (hMSCs) were purchased from Lonza (Walkersville, Md.) and expanded in Mesenchymal Stem Cell Growth Media (Lonza). Cells between passage 3 and 6 were used for the experiments.
Compound Screening: Each compound was dissolved in DMSO as a 10 mM stock and used to prepare compound source plates. For the 96 well assay, serial dilution (1:3, 6-point dose-response curves from 2700 nM to 10 nM) and compound transfer was performed using the ECHO 550 (Labcyte, Sunnyvale, Calif.) into 96-well clear bottom assay plates (Greiner Bio-One) with appropriate DMSO backfill for a final DMSO concentration of 0.03%. hMSCs were plated at 20,000 cells/well in 250 μL/well Incomplete Chondrogenic Induction Medium (Lonza; DMEM, dexamethasone, ascorbate, insulin-transferrin-selenium [ITS supplement], gentamycin-amphotericin [GA-1000], sodium pyruvate, proline and L-glutamine). TGF-β3 (10 ng/mL) was used as a positive control for differentiation while negative control wells were treated with 75 nL DMSO for normalization and calculating EC50 values. For the 384 well assay, serial dilution (1:3, 8-point dose-response curves from 5000 nM to 2.2 nM) and compound transfer was performed using the ECHO 550 (Labcyte, Sunnyvale, Calif.) into 384-well clear bottom assay plates (Greiner Bio-One) with appropriate DMSO backfill for a final DMSO concentration of 0.03%. hMSCs were plated at 8,000 cells/well in 80 μL/well Incomplete Chondrogenic Induction Medium (Lonza; DMEM, dexamethasone, ascorbate, insulin-transferrin-selenium [ITS supplement], gentamycin-amphotericin [GA-1000], sodium pyruvate, proline and L-glutamine). TGF-β3 (10 ng/mL) was used as a positive control for differentiation while negative control wells were treated with 25 nL DMSO for normalization and calculating EC50 values. Cells were incubated at 37° C. and 5% CO2 for 6 days. To image chondrogenic nodules, the cells were fixed using 4% formaldehyde (Electron Microscopy Sciences), and stained with 2 μg/mL Rhodamine B (Sigma-Aldrich) and 20 μM Nile Red (Sigma-Aldrich) [Johnson K., et. al, A Stem Cell-Based Approach to Cartilage Repair, Science, (2012), 336(6082), 717-721]. The nodules imaged (25 images per well for 96 well plates and 9 images per well for 384 well plates at 10× magnification) by excitation at 531 nm and emission at 625 nm and quantified using the CellInsight CX5 (Thermo Scientific). Area of nodules in each well was normalized to the average of 3 DMSO treated wells on the same plate using Excel (Microsoft Inc.). The normalized averages (fold change over DMSO) of 2 or 3 replicate wells for each compound concentration were calculated. Due to solubility limitations of some of the compounds, curve fitting was incomplete leading to inaccurate EC50 determinations.
Using TGF-β3 as a positive control, the concentration of representative compounds required to induce 50% levels of chondrogenesis is reported. In addition, the maximum activity of each compound and the respective dose that each compound reached maximum chondrogenesis activity is reported.

In another test the test system is IL-6 (THP-1 cells). The test is described as follows: IL-6 inhibition in LPS-stimulated THP-1 monocytes (HTRF). To be noted: Homo sapiens, IL-6 HTRF; for EC50: 500 ng/mL LPS, Table 6; for inhibition at 10 µM: LPS, Table 6, read-out: percent inhibition at 10 μM (given in parentheses for EC50 >10 μM). The test is classed as cell-based. The procedure:
Human Monocyte Cell Culture: Human monocyte cell line (THP-1 cells; Catalog # TIB-202, ATCC, Manassas, Va.) were cultured in Roswell Park Memorial Institute (RPMI) 1640 Medium (Catalog #21870-100, Buffalo, N.Y.) with 1% L-glutamine, 1% HEPES, 1% Sodium Pyruvate, 2% Sodium Bicarbonate supplemented with 100 units/mL penicillin, 50 μg/mL streptomycin, 2-mercaptoethanol (0.05 mM) [basal medium] and 10% fetal bovine serum (Catalog #16140089, Life Technologies, Carlsbad, Calif.) at 37° C. and 5% CO2.
Compound Screening: THP-1 cells were cultured in basal media with 1% FBS for 24 hours before the start of the assay. Each compound was dissolved in DMSO as a 10 mM stock and used to prepare compound source plates. Serial dilution (1:3, 10-point dose-response curves starting from 10 μM) and compound transfer was performed using the ECHO 550 (Labcyte, Sunnyvale, Calif.) into 384-well white low volume assay plates (Greiner Bio-One) with appropriate DMSO backfill for a final DMSO concentration of 0.1%. THP-1 cells were plated at 5000 cells/well in the 384-well plates and incubated at 37° C. for 2 h. 500 ng/mL of LPS was added after 2 hours and cells were incubated for another 22 hours at 37° C. Plates were spun in a centrifuge for 1 minute at […] and a mixture of anti-IL6 XL665, and anti-IL6 Cryptate diluted in reconstitution buffer (Cisbio Inc.) was added to each well. Following incubation for 3 hrs at room temperature, Homogeneous Time-Resolved Fluorescence (HTRF) was measured using the Envision (Perkin Elmer) at 665 nm and […]. The ratio of fluorescence at 665 nm to 620 nm was used as a readout for IL6 quantification. All samples were processed in duplicate. Readings were normalized to DMSO treated cells and normalized activities were utilized for EC50 calculations using the dose-response log (inhibitor) vs. response-variable slope (four parameters) nonlinear regression feature available in GraphPad Prism 5.0 (or Dotmatics). For EC50 of >10 μM, the percent inhibition at 10 μM is provided.
A general note: In TR-FRET formats the signal depends on donor and acceptor labels being close together.

With `COc1cccc(-c2cccc3[nH]c(-c4n[nH]c5ccc(-c6cncc(NC(=O)Cc7ccccc7)c6)nc45)nc23)c1` [Compound 1000, N-(5-(3-(4-(3-Methoxyphenyl)-1H-benzo[d]imidazol-2-yl)-1H-pyrazolo[4,3-b]pyridin-5-yl)pyridin-3-yl)-2-phenylacetamide], in test [1], the Emax turned out to be 50% and the EC50 was determined as 900 nM. This compound also yielded an EC50 in the test on IL-6 (THP-1 cells) of 812 nM.

`CCNCc1cncc(-c2ccc3[nH]nc(-c4nc5c(-c6ccccn6)cccc5[nH]4)c3n2)c1` [Compound 146, N-((5-(3-(4-(Pyridin-2-yl)-1H-benzo[d]imidazol-2-yl)-1H-pyrazolo[4,3-b]pyridin-5-yl)pyridin-3-yl)methyl)ethanamine]: in test [1], the Emax amounted to 279% and the EC50 was 1670 nM. For the same compound, in the test with IL-6 (THP-1 cells), the EC50 is over 10000 nM and the inhibition (as a rule, the drop in the measured response relative to a control, in per cent) at 10 µM was found to be 19.5%.

Take `Fc1cccc(-c2cccc3[nH]c(-c4n[nH]c5ccc(-c6cn[nH]c6)nc45)nc23)c1` [Compound 507, 3-(4-(3-Fluorophenyl)-1H-benzo[d]imidazol-2-yl)-5-(1H-pyrazol-4-yl)-1H-pyrazolo[4,3-b]pyridine]: in test [1], the Emax was found to be 53%. Besides, in the test on IL-6 (THP-1 cells), the EC50 was over 10000 nM and the inhibition at 10 µM came out at 31.7%.

Turning to `Fc1ccc(-c2cccc3[nH]c(-c4n[nH]c5ccc(-c6cncc(CN7CCCC7)c6)nc45)nc23)cc1` [Compound 42, 3-(4-(4-Fluorophenyl)-1H-benzo[d]imidazol-2-yl)-5-(5-(pyrrolidin-1-ylmethyl)pyridin-3-yl)-1H-pyrazolo[4,3-b]pyridine], the Emax in test [1] was found to be 23%. This compound gave an EC50 with IL-6 (THP-1 cells) of 388 nM.

For `Fc1cccc(-c2cccc3[nH]c(-c4n[nH]c5ccc(C6=CCNCC6)nc45)nc23)c1` [Compound 506, 3-(4-(3-Fluorophenyl)-1H-benzo[d]imidazol-2-yl)-5-(1,2,3,6-tetrahydropyridin-4-yl)-1H-pyrazolo[4,3-b]pyridine], the Emax in test [1] stood at 42%. Further, in the test on IL-6 (THP-1 cells), the EC50 is over 10000 nM and the inhibition at 10 µM stood at 25.9%.

On to `Clc1ccc(-c2cccc3[nH]c(-c4n[nH]c5ccc(-c6cncc(CN7CCCC7)c6)nc45)nc23)s1` [Compound 1049, 3-(4-(5-Chlorothiophen-2-yl)-1H-benzo[d]imidazol-2-yl)-5-(5-(pyrrolidin-1-ylmethyl)pyridin-3-yl)-1H-pyrazolo[4,3-b]pyridine], for which, in test [1], the Emax came out at 408%. For the same compound, in the test with IL-6 (THP-1 cells), the EC50 is over 10000 nM and the inhibition at 10 µM turned out to be 48.3%.

Take `COc1cccc(-c2cccc3[nH]c(-c4n[nH]c5ccc(-c6cccnc6)nc45)nc23)c1` [Compound 994, 3-(4-(3-Methoxyphenyl)-1H-benzo[d]imidazol-2-yl)-5-(pyridin-3-yl)-1H-pyrazolo[4,3-b]pyridine]: in test [1], the Emax amounted to 70% and the EC50 is 100 nM. Further, in the test with IL-6 (THP-1 cells), the EC50 was over 10000 nM and the inhibition at 10 µM came to 32.2%.

Consider `Cn1cc(-c2ccc3[nH]nc(-c4nc5c(-c6ccc7c(c6)OCO7)cccc5[nH]4)c3n2)c(CO)n1` [Compound 1152, (4-(3-(4-(Benzo[d][1,3]dioxol-5-yl)-1H-benzo[d]imidazol-2-yl)-1H-pyrazolo[4,3-b]pyridin-5-yl)-1-methyl-1H-pyrazol-3-yl)methanol], for which, in the test with IL-6 (THP-1 cells), the EC50 is over 10000 nM and the inhibition at 10 µM amounted to 23.3%.

`O=C(Nc1cncc(-c2ccc3[nH]nc(-c4nc5c(-c6ccccc6F)cccc5[nH]4)c3n2)c1)C1CCCC1` [Compound 78, N-(5-(3-(4-(2-Fluorophenyl)-1H-benzo[d]imidazol-2-yl)-1H-pyrazolo[4,3-b]pyridin-5-yl)pyridin-3-yl)cyclopentanecarboxamide]: in the test on IL-6 (THP-1 cells), the EC50 was over 10000 nM and the inhibition at 10 µM came out at 19.1%.

In the case of `CS(=O)(=O)NCc1cc(F)cc(-c2cccc3[nH]c(-c4n[nH]c5ccc(-c6cncc(NC(=O)c7ccccc7)c6)nc45)nc23)c1` [Compound 487, N-(5-(3-(4-(3-Fluoro-5-(methylsulfonamidomethyl)phenyl)-1H-benzo[d]imidazol-2-yl)-1H-pyrazolo[4,3-b]pyridin-5-yl)pyridin-3-yl)benzamide], in the test with IL-6 (THP-1 cells), the EC50 is over 10000 nM and the inhibition at 10 µM is 0%.

In the case of `C1=C(c2ccc3[nH]nc(-c4nc5c(-c6ccc7c(c6)OCO7)cccc5[nH]4)c3n2)CCNC1` [Compound 1109, 3-(4-(Benzo[d][1,3]dioxol-5-yl)-1H-benzo[d]imidazol-2-yl)-5-(1,2,3,6-tetrahydropyridin-4-yl)-1H-pyrazolo[4,3-b]pyridine], the EC50 in the test with IL-6 (THP-1 cells) was determined as 5870 nM.

For `Cn1cc(-c2ccc3[nH]nc(-c4nc5c(-c6cc(F)cc(CNS(C)(=O)=O)c6)cccc5[nH]4)c3n2)cn1` [Compound 764, N-(3-Fluoro-5-(2-(5-(1-methyl-1H-pyrazol-4-yl)-1H-pyrazolo[4,3-b]pyridin-3-yl)-1H-benzo[d]imidazol-4-yl)benzyl)methanesulfonamide], the EC50 with IL-6 (THP-1 cells) came out at 3150 nM.

For the compound `c1ccc(CNCc2cncc(-c3ccc4[nH]nc(-c5nc6c(-c7cccnc7)cccc6[nH]5)c4n3)c2)cc1` [Compound 108, N-Benzyl-1-(5-(3-(4-(pyridin-3-yl)-1H-benzo[d]imidazol-2-yl)-1H-pyrazolo [4,3-b]pyridin-5-yl)pyridin-3-yl)methanamine], in the test with IL-6 (THP-1 cells), the EC50 amounted to 2120 nM.

In the case of `CC(C)(C)CC(=O)Nc1cncc(-c2ccc3[nH]nc(-c4nc5c(-c6ccccc6F)cccc5[nH]4)c3n2)c1` [Compound 72, N-(5-(3-(4-(2-Fluorophenyl)-1H-benzo[d]imidazol-2-yl)-1H-pyrazolo[4,3-b]pyridin-5-yl)pyridin-3-yl)-3,3-dimethylbutanamide], in the test on IL-6 (THP-1 cells), the EC50 was over 10000 nM and the inhibition at 10 µM worked out at 14.1%.

In turn, `Cc1ncc(-c2ccc3[nH]nc(-c4nc5c(-c6cc(F)cc(NCCN(C)C)c6)cccc5[nH]4)c3n2)n1C` [Compound 781, N^1-(3-(2-(5-(1,2-Dimethyl-1H-imidazol-5-yl)-1H-pyrazolo[4,3-b]pyridin-3-yl)-1H-benzo[d]imidazol-4-yl)-5-fluorophenyl)-N^2,N^2-dimethylethane-1,2-diamine] showed an EC50 in the test with IL-6 (THP-1 cells) of 164 nM.

In the case of `O=C(Nc1cncc(-c2ccc3[nH]nc(-c4nc5c(-c6ccsc6)cccc5[nH]4)c3n2)c1)c1ccccc1` [Compound 291, N-(5-(3-(4-(Thiophen-3-yl)-1H-benzo[d]imidazol-2-yl)-1H-pyrazolo[4,3-b]pyridin-5-yl)pyridin-3-yl)benzamide], in the test on IL-6 (THP-1 cells), the EC50 was over 10000 nM and the inhibition at 10 µM came out at 28.9%.

The record behind these values is patent US10392383B2, “3-(1H-benzo[d]imidazol-2-yl)-1H-pyrazolo[4,3-b]pyridines and therapeutic uses thereof” (Samumed, LLC, priority 2015, dated 2019).
